Results reported in patent US10111901B2, “Beta-glucan in combination with anti-cancer agents affecting the tumor microenvironment” (Biothera, Inc., priority 2014, dated 2018).

What was measured:
Type in all cases: cell-based, human
CD4 T cells = test: MCM-CD4 T cell proliferation and surface marker study
Experimental: For MCM-CD4 T cell proliferation study, CD3 & CD28-stimulated, CFSE-labeled CD4 T cells were cultured with 50% MCM. T cell proliferation was measured on day 11 as described above. Culture supernatants of the MCM-CD4 T cell co-culture were collected for subsequent cytokine analysis. MCM-CD4 T cell surface marker evaluation was performed as described above.
To determine whether soluble factors secreted from β-glucan-treated M2 macrophages are required, measurements were carried out of CD4 T cell proliferation co-cultured with β-glucan-treated M2 macrophages MCM (50% of volume) and surface activation marker modulation on T cells incubated with the MCM were observed. FIG. 9 is representative of 2 different experiments. […] In addition, the CD4 T cells cultured in vehicle- and β-glucan-treated M2 macrophage MCM were evaluated for modulation of co-stimulatory or co-inhibitory molecules (CD80, CD28, CTLA-4, 4-1BB and PD-1).
To test this, M2 macrophages were prepared as described above with a few modifications. The whole blood of a low binder was spun down to remove the plasma and then the cells were reconstituted with serum obtained from a high binder. The reconstituted blood was treated with vehicle or β-glucan (25 μg/mL) for 2 hours at 37° C. The monocytes were evaluated for binding by using anti-β-glucan specific monoclonal antibody and subsequent flow cytometry.

CD4 and CD8 T cells [1] = test: T cell proliferation and activation of PBMCs cultured in plasma from treated whole blood
Experimental: To obtain plasma, whole blood was treated for 6 hours with 25 μg/mL β-glucan or vehicle, spun down and the plasma removed. 50,000 autologous CFSE-labeled PBMCs were cultured in the treated plasma for 3 days in the presence of 50,000 T cell activating CD3/28 beads (DYNABEADS Human T-Activator CD3/CD28 for T Cell Expansion and Activation). At the end of the culture, PBMCs were stained with CD4 and CD8 and T cell proliferation was measured by CFSE dilution.
Next, to show the effect of soluble β-glucan on CD4 and CD8 cell activation, the T cell proliferation assay described above was again carried out. At day 3, however, the cells were stained for markers of activation including Granzyme B production and CD25 upregulation.
To determine whether the enhancement of T cell proliferation by β-glucan is direct or indirect, T cell proliferation assays were carried out as described above except the plasma from untreated (vehicle) whole blood was then either treated with β-glucan or vehicle prior to adding to autologous PBMCs. CFSE dilution was quantitated by Division Index using FLOWJO software and plotted as fold change over vehicle control. The results shown in FIG. 5C indicate that β-glucan's enhanced effect is due to indirect mechanisms.

CD4 and CD8 T cells [2] = test: Allogeneic mixed lymphocyte reaction (allo-MLR) with mMoDC

Substance: β(1,6)-[poly-(1,3)-D-glucopyranosyl]-poly-β(1,3)-D-glucopyranose [β-glucan]
- T cell markers (CD80, CD28, CTLA-4, 4-1BB and PD-1) (CD4 T cells; CD4 T cells cultured in β-glucan-treated M2 macrophage MCM (data not shown)): no change
- CD4 T cell proliferation (CD4 T cells; MCM of M2 macrophages of a low binder crossed-over with high binder's serum, 25 μg/mL): significantly higher ability to enhance
- CD4 T cell proliferation (CD4 T cells; β-glucan-treated M2 macrophage MCM (50% of volume) vs vehicle-treated MCM): significantly higher ability to enhance
- CD4 and CD8 proliferation (CFSE dilution) (CD4 and CD8 T cells [1]; plasma from whole blood treated 6 hours with 25 μg/mL β-glucan, vs vehicle): significant enhancement
- CD4 and CD8 cell activation (Granzyme B production, CD25 upregulation) (CD4 and CD8 T cells [1]; β-glucan-treated plasma, day 3): enhances CD4 and CD8 cell activation
- immunogenicity in allo-MLR (CD4 and CD8 T cell expansion) (CD4 and CD8 T cells [2]; β-glucan-treated mMoDC from high binders): increased immunogenicity
- IFN-γ production (CD4 and CD8 T cells [2]; β-glucan-treated mMoDC from high binders vs low binders and vehicle-treated mMoDCs): able to modulate IFN-γ production
